According to patent US20240335443A1, “IMIDAZOLOPYRIDAZINE OR PYRAZOLOPYRIMIDINE COMPOUNDS AND COMPOSITIONS” (Anrui Biomedical Technology (Guangzhou) Co., Ltd., priority 2021, published 2024):

molecular target: T1, N-terminal His-tagged TYK2 pseudokinase domain (Homo sapiens, UniProt P29597); experiment: TYK2 JH2 domain SPA binding assay; settings: displacement of H3 probe (20 nM), 30 min room temperature; class symbols
T1 construct: the N-terminal His-tagged TYK2 pseudokinase domain; His (N); purchased Pharmaron
T1 sequence (P29597 589-875 limits assumed): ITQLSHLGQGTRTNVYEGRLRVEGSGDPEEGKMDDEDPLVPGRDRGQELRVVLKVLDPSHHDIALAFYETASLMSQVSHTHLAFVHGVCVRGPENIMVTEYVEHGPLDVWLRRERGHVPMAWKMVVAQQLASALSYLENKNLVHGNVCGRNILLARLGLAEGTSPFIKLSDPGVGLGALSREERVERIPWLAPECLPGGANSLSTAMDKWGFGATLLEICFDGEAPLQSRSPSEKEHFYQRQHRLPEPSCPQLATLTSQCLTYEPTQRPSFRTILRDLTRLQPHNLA
Method: TYK2 JH2 Domain Binding Assay
After incubating at room temperature for 30 min, the inhibition was calculated by the displacement of [3H] 3 binding as determined by scintillation counting. Dose-response curves were generated to determine the concentration required to inhibit H3 probe binding by […] (IC50).

IC50 [nM]	SMILES
10 to 100	[2H]C([2H])([2H])Nc1cc(Nc2cccn(C3CC4OCCC43)c2=O)nn2c(C(=O)N[C@@H]3C[C@H]4CCO[C@H]43)cnc12 (single isomer, unassigned) [Compound 94a]
10 to 100	[2H]C([2H])([2H])Nc1cc(Nc2cccn(C3CC4OCCC43)c2=O)nn2c(C(=O)N[C@@H]3C[C@H]4CCO[C@H]43)cnc12 (single isomer, unassigned) [Compound 94b]
10 to 100	CNc1cc(Nc2cccn([C@@H]3C[C@H]4CCO[C@H]43)c2=O)nn2c(C(=O)NC3CCC4CCOC43)cnc12 (single isomer, unassigned) [Compound 95a]
> 1000	CNc1cc(Nc2cccn([C@@H]3C[C@H]4CCO[C@H]43)c2=O)nn2c(C(=O)NC3CCC4CCOC43)cnc12 (single isomer, unassigned) [Compound 95b]
10 to 100	[2H]C([2H])([2H])Nc1cc(Nc2cccn(C3CC4(CCOC4)C3)c2=O)nn2c(C(=O)N[C@@H]3C[C@H]4CCO[C@H]43)cnc12 (single isomer, unassigned) [Compound 96a]
10 to 100	[2H]C([2H])([2H])Nc1cc(Nc2cccn(C3CC4(CCOC4)C3)c2=O)nn2c(C(=O)N[C@@H]3C[C@H]4CCO[C@H]43)cnc12 (single isomer, unassigned) [Compound 96b]
10 to 100	[2H]C([2H])([2H])Nc1cc(Nc2cccn(C3CC4(CCOC4)C3)c2=O)nc2c(C(=O)N[C@@H]3C[C@H]4CCO[C@H]43)cnn12 (single isomer, unassigned) [Compound 97a]
10 to 100	[2H]C([2H])([2H])Nc1cc(Nc2cccn(C3CC4(CCOC4)C3)c2=O)nc2c(C(=O)N[C@@H]3C[C@H]4CCO[C@H]43)cnn12 (single isomer, unassigned) [Compound 97b]
10 to 100	[2H]C([2H])([2H])Nc1cc(Nc2cccn(C3CC4(CCCO4)C3)c2=O)nn2c(C(=O)N[C@@H]3C[C@H]4CCO[C@H]43)cnc12 (single isomer, unassigned) [Compound 98a]
10 to 100	[2H]C([2H])([2H])Nc1cc(Nc2cccn(C3CC4(CCCO4)C3)c2=O)nn2c(C(=O)N[C@@H]3C[C@H]4CCO[C@H]43)cnc12 (single isomer, unassigned) [Compound 98b]
10 to 100	[2H]C([2H])([2H])Nc1cc(Nc2cccn(C3CC4OCCC43)c2=O)nn2c(C(=O)N[C@@H]3C[C@@H]3F)cnc12 (single isomer, unassigned) [Compound 101a]
10 to 100	[2H]C([2H])([2H])Nc1cc(Nc2cccn(C3CC4OCCC43)c2=O)nn2c(C(=O)N[C@@H]3C[C@@H]3F)cnc12 (single isomer, unassigned) [Compound 101b]
10 to 100	[2H]C([2H])([2H])Nc1cc(Nc2cccn(C3CC4(CCOC4)C3)c2=O)nn2c(C(=O)N[C@@H]3C[C@@H]3F)cnc12 (single isomer, unassigned) [Compound 102a]
10 to 100	[2H]C([2H])([2H])Nc1cc(Nc2cccn(C3CC4(CCOC4)C3)c2=O)nn2c(C(=O)N[C@@H]3C[C@@H]3F)cnc12 (single isomer, unassigned) [Compound 102b]
10 to 100	[2H]C([2H])([2H])Nc1cc(Nc2cccn(C3CC4(CCOC4)C3)c2=O)nc2c(C(=O)N[C@@H]3C[C@@H]3F)cnn12 (single isomer, unassigned) [Compound 103a]
100 to 1000	[2H]C([2H])([2H])Nc1cc(Nc2cccn(C3CC4(CCOC4)C3)c2=O)nc2c(C(=O)N[C@@H]3C[C@@H]3F)cnn12 (single isomer, unassigned) [Compound 103b]
10 to 100	[2H]C([2H])([2H])Nc1cc(Nc2cccn(C3CC4(CCCO4)C3)c2=O)nn2c(C(=O)N[C@@H]3C[C@@H]3F)cnc12 (single isomer, unassigned) [Compound 104a]
10 to 100	[2H]C([2H])([2H])Nc1cc(Nc2cccn(C3CC4(CCCO4)C3)c2=O)nn2c(C(=O)N[C@@H]3C[C@@H]3F)cnc12 (single isomer, unassigned) [Compound 104b]
100 to 1000	CNc1cc(Nc2cccn(C3CC4CCOC43)c2=O)nn2c(C(=O)N[C@@H]3C[C@@H]3F)cnc12 (single isomer, unassigned) [Compound 105a]
100 to 1000	CNc1cc(Nc2cccn(C3CC4CCOC43)c2=O)nn2c(C(=O)N[C@@H]3C[C@@H]3F)cnc12 (single isomer, unassigned) [Compound 105b]

system: IL-23 induced STAT3 in HEK-Blue™ IL-23 cells; experiment: IL-23 induced STAT3 QUANTI-Blue reporter assay in HEK-Blue IL-23 cells; assay type: cell-based; settings: HEK-Blue IL-23, HEK-Blue IL-23 cells, IL-23 0.1 ng/mL, SEAP levels; class symbols; read-out: IL23 reporter assay (IC50 nM)
Method: Biological Example 2. IL-23 Induced STAT3 QUANTI-Blue in HEK-Blue™ IL-23 Cells
HEK-Blue™ IL-23 cells were prepared at 2×10^5 cells/ml for adding 5000 cell/well and incubate plates containing compounds+cells for 1 hour at 37° C. Prepare IL-23 (treatment at final conc. 0.1 ng/mL) during incubation and add 2 ul per well of prepared cytokine in media to appropriate wells. The plate is incubated for overnight at 37° C. The next day, QUANTI-Blue solution is prepared. 18 ul of QUANTI-Blue solution per well is added into a new 384-well clear flat bottom plate, then add 2 ul of induced and treated HEK-Blue cell supernatant from overnight plate. Incubate the plate at 37° C. for 2 hours and determine SEAP levels.

SMILES	IC50 [nM]
[2H]C([2H])([2H])Nc1cc(Nc2cccn(C3CC4OCCC43)c2=O)nn2c(C(=O)N[C@@H]3C[C@H]4CCO[C@H]43)cnc12 (single isomer, unassigned) [Compound 94a]	10 to 100
[2H]C([2H])([2H])Nc1cc(Nc2cccn(C3CC4(CCOC4)C3)c2=O)nn2c(C(=O)N[C@@H]3C[C@H]4CCO[C@H]43)cnc12 (single isomer, unassigned) [Compound 96a]	10 to 100
[2H]C([2H])([2H])Nc1cc(Nc2cccn(C3CC4(CCOC4)C3)c2=O)nc2c(C(=O)N[C@@H]3C[C@H]4CCO[C@H]43)cnn12 (single isomer, unassigned) [Compound 97a]	10 to 100
[2H]C([2H])([2H])Nc1cc(Nc2cccn(C3CC4(CCCO4)C3)c2=O)nn2c(C(=O)N[C@@H]3C[C@H]4CCO[C@H]43)cnc12 (single isomer, unassigned) [Compound 98a]	10 to 100
[2H]C([2H])([2H])Nc1cc(Nc2cccn(C3CC4OCCC43)c2=O)nn2c(C(=O)N[C@@H]3C[C@@H]3F)cnc12 (single isomer, unassigned) [Compound 101a]	10 to 100
[2H]C([2H])([2H])Nc1cc(Nc2cccn(C3CC4(CCOC4)C3)c2=O)nn2c(C(=O)N[C@@H]3C[C@@H]3F)cnc12 (single isomer, unassigned) [Compound 102a]	10 to 100
[2H]C([2H])([2H])Nc1cc(Nc2cccn(C3CC4(CCOC4)C3)c2=O)nc2c(C(=O)N[C@@H]3C[C@@H]3F)cnn12 (single isomer, unassigned) [Compound 103a]	10 to 100
[2H]C([2H])([2H])Nc1cc(Nc2cccn(C3CC4(CCCO4)C3)c2=O)nn2c(C(=O)N[C@@H]3C[C@@H]3F)cnc12 (single isomer, unassigned) [Compound 104a]	10 to 100
CNc1cc(Nc2cccn(C3CC4CCOC43)c2=O)nn2c(C(=O)N[C@@H]3C[C@@H]3F)cnc12 (single isomer, unassigned) [Compound 105a]	10 to 100

same assay, conditions: HEK-Blue IL-23 cells, IL-23 0.1 ng/mL, SEAP levels; class symbols; read-out: IL23 reporter assay (IC50 nM)

SMILES	IC50 [nM]
[2H]C([2H])([2H])Nc1cc(Nc2cccn(C3CC4OCCC43)c2=O)nn2c(C(=O)N[C@@H]3C[C@H]4CCO[C@H]43)cnc12 (single isomer, unassigned) [Compound 94b]	10 to 100
CNc1cc(Nc2cccn([C@@H]3C[C@H]4CCO[C@H]43)c2=O)nn2c(C(=O)NC3CCC4CCOC43)cnc12 (single isomer, unassigned) [Compound 95a]	< 10
CNc1cc(Nc2cccn([C@@H]3C[C@H]4CCO[C@H]43)c2=O)nn2c(C(=O)NC3CCC4CCOC43)cnc12 (single isomer, unassigned) [Compound 95b]	≥ 1000
[2H]C([2H])([2H])Nc1cc(Nc2cccn(C3CC4(CCOC4)C3)c2=O)nn2c(C(=O)N[C@@H]3C[C@H]4CCO[C@H]43)cnc12 (single isomer, unassigned) [Compound 96b]	10 to 100
[2H]C([2H])([2H])Nc1cc(Nc2cccn(C3CC4(CCOC4)C3)c2=O)nc2c(C(=O)N[C@@H]3C[C@H]4CCO[C@H]43)cnn12 (single isomer, unassigned) [Compound 97b]	10 to 100
[2H]C([2H])([2H])Nc1cc(Nc2cccn(C3CC4(CCCO4)C3)c2=O)nn2c(C(=O)N[C@@H]3C[C@H]4CCO[C@H]43)cnc12 (single isomer, unassigned) [Compound 98b]	10 to 100
[2H]C([2H])([2H])Nc1cc(Nc2cccn(C3CC4OCCC43)c2=O)nn2c(C(=O)N[C@@H]3C[C@@H]3F)cnc12 (single isomer, unassigned) [Compound 101b]	10 to 100
[2H]C([2H])([2H])Nc1cc(Nc2cccn(C3CC4(CCOC4)C3)c2=O)nn2c(C(=O)N[C@@H]3C[C@@H]3F)cnc12 (single isomer, unassigned) [Compound 102b]	10 to 100
[2H]C([2H])([2H])Nc1cc(Nc2cccn(C3CC4(CCOC4)C3)c2=O)nc2c(C(=O)N[C@@H]3C[C@@H]3F)cnn12 (single isomer, unassigned) [Compound 103b]	10 to 100
[2H]C([2H])([2H])Nc1cc(Nc2cccn(C3CC4(CCCO4)C3)c2=O)nn2c(C(=O)N[C@@H]3C[C@@H]3F)cnc12 (single isomer, unassigned) [Compound 104b]	10 to 100
CNc1cc(Nc2cccn(C3CC4CCOC43)c2=O)nn2c(C(=O)N[C@@H]3C[C@@H]3F)cnc12 (single isomer, unassigned) [Compound 105b]	10 to 100
